According to patent publication US20130089504A1, “Compositions Comprising Enzyme-Cleavable Hydromorphone Prodrug” (priority 2010, published 2013):

How the values were obtained:
[1] = Pharmacokinetics of hydromorphone prodrug following IV administration to rats; format: in vivo; settings: male, Sprague Dawley; rat IV, PC-5 2 mg/kg (0.29 μmol/kg); plasma; read-out: PC-5 Cmax ± sd
[2] = In vivo tolerability of Compound PC-5 in rats (IV); settings: rat IV
Experimental: Male naïve Sprague-Dawley rats, 4 per dose, were used in the study. Rats were weighed, and then placed under a heat lamp for 15-20 minutes to dilate the lateral tail veins. Before dosing, rats were placed in Broome restrainers and the drug was introduced into one of the tail veins using a syringe and needle. […] Blood samples were collected 5 minutes post-dose via the saphenous vein. The rats were observed up to 24 hours.

trypsin = target: T1, trypsin (Bos taurus, UniProt P00760); experiment: In vitro trypsin conversion of prodrug Compound PC-5 to hydromorphone; format: biochemical; settings: no trypsin inhibitor
T1 construct: gene PRSS1
T1 sequence (P00760 24-246): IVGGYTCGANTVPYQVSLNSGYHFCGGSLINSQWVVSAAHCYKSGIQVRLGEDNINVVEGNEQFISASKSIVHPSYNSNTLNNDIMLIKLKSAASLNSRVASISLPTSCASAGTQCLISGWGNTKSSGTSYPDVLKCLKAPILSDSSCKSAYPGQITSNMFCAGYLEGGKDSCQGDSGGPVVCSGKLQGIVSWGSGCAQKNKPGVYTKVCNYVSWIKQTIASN
Experimental: Compound PC-5 was exposed to trypsin as described. […] A 5-minute 37° C. pre-incubation of the reaction mixture without prodrug was conducted and then the prodrug was added to initiate the incubation. The reaction was conducted at 37° C. for 24 hr.

[3] = In vitro stability of Compound PC-5 to household chemicals and enzyme preparations; format: physicochemical; settings: vodka, baking soda, WINDEX, vinegar at RT or 80° C.; GNC Super Digestive, tenderizer, subtilisn at RT; 1 or 24 hr
Experimental: Samples were incubated as described. Aliquots were removed at 1 hr and 24 hr and stabilized by transferring each to a solution of 50% or 100% phosphoric acid to achieve a final pH of less than or equal to pH 4. The stabilized aliquots were then diluted 4- to 6-fold with water, vortex-mixed and applied to HPLC.
The percentage of Compound PC-5 remaining after exposure is indicated by the solid black bars and percentage conversion of Compound PC-5 to hydromorphone is indicated by the lightly shaded bars with a black outline.

CCN(CCNC(=O)[C@H](CCCCN)NC(=O)CC(=O)O)C(=O)Oc1ccc2c3c1O[C@H]1C(=O)CCC4[C@@H](C2)N(C)CC[C@@]341 (stereo partly drawn) [Compound PC-5, [2-((S)-2-malonylamino-6-amino-hexanoylamino)-ethyl]-ethyl-carbamic acid hydromorphone ester]
Cmax [1]: 3090 ± 360 ng/mL
dose rats can tolerate [2]: 9.7 µmol/kg
Clinical observations ([2]; 33 mg/kg ([…]), observed up to 24 hours): Normal
trypsin-mediated release of hydromorphone (trypsin; in vitro): trypsin can mediate release hydromorphone
Rate of HM formation, Average ± sd (trypsin; 0.761 mM prodrug, 0.02 to 0.0228 mg/ml trypsin, Tris pH 8, 37° C.): 106 ± 2 umols/h/umol trypsin
half-life at 0.761 mM (trypsin; 0.761 mM prodrug, 0.02 to 0.0228 mg/ml trypsin, Tris pH 8, 37° C., read-out: Prodrug trypsin half-life, Average ± sd (converted)): 2.81 ± 0.23 h
conversion of Compound PC-5 to hydromorphone [3]: less than 10%
